We go through one molecule from US20250262167A1, “COMPOUNDS, TARGETS AND PATHWAYS FOR MACROPHAGE MODULATION” (Massachusetts Institute of Technology, priority 2020, published 2025).

For the test, the system named is β-arrestin2. Kind of test: β-arrestin2 translocation assay (TIRF microscope). Type of test: cell-based, mouse. The conditions noted are these: 10 min, ImKCs and BMDMs; DPI 50 nM, S1P 3 mM. How it is done: FIGS. 21A-21I show DPI stimulates glycolysis through GPR3 and β-arrestin2. FIGS. 21A-21B show DPI-stimulated glycolysis is independent of the NOX activity. […] The mean fluorescence intensity (MFI) of 2-NBDG in cells was measured by flow cytometry and normalized to DMSO controls of wildtype BMDMs. Data are presented as the mean±sd (n=3). […] ImKCs were transfected with siRNA specific for Gpr3 or a scramble siRNA as control. […] Data are presented as the mean±sd (n=4). […] Data are presented as the mean±sd (n=12). […] Abbr2^−/− ImKC were constructed by CRISPR-Cas9-mediated gene editing. […] Data are presented as the mean±sd (n=4). […] ImKCs were transfected with Abbr2-GFP fusion gene and stimulated with DMSO, DPI (50 nM), or S1P (3 mM). The GFP signal was captured with a TIRF microscope at indicated time points. Shown are representative data of GFP signal at 0 min and 10 min, and merged signal from three independent experiments.
Specific parameters for glycolytic capacity and glycolytic reserve were calculated and summarized based on two independent experiments. […] The GFP signal was captured with a TIRF microscope at indicated time points. […]
BMDMs or ImKCs were cotransfected with plasmids encoding FLAG-GPR3-GFP or β-arrestin2-RFP. […] The fluorescent signals of membrane-bound receptor or β-arrestin2 were collected as live images using a total internal reflection fluorescence (TIRF) microscope (Olympus). […]

For `c1ccc2c(c1)[I+]c1ccccc1-2` [Diphenyleneiodonium chloride], the “translocation of β-arrestin2 from cytosol to the plasma membrane” value is reported as “stimulated translocation”.
